According to patent US11981658B2, “Substituted aminopyridine compounds as EGFR inhibitors” (YUHAN CORPORATION, priority 2021, dated 2024):
Like-named read-outs stand apart in the source and are kept apart here.

Tests used:
EGFR L858R/C797S = EGFR L858R/C797S (Homo sapiens, UniProt P00533, C797S/L858R); experiment: Biochemical EGFR kinase inhibition assay (Lance Ultra TR-FRET), double mutant L858R/C797S
Outline: (§1)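 Kinase activity is measured by TR-FRET phosphopeptide detection. Compounds span 0.003 μM to 10 μM; the 1 h reaction at room temperature is quenched with EDTA, then labelled antibody (2 nM) is incubated 60 min before reading.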

EGFR Del19/T790M/C797S = EGFR Del19/T790M/C797S (Homo sapiens, UniProt P00533, C797S/DEL746-750/T790M); experiment: Biochemical EGFR kinase inhibition assay (Lance Ultra TR-FRET), triple mutant del19/T790M/C797S
Outline: as §1

EGFR L858R/T790M/C797S = EGFR L858R/T790M/C797S (Homo sapiens, UniProt P00533, C797S/L858R/T790M); experiment: Biochemical EGFR kinase inhibition assay (Lance Ultra TR-FRET), triple mutant L858R/T790M/C797S
Outline: as §1

EGFR wildtype (WT) = EGFR wildtype (WT) (Homo sapiens, UniProt P00533); experiment: Biochemical EGFR kinase inhibition assay (Lance Ultra TR-FRET), wildtype
Outline: as §1

EGFR Del19/C797S = EGFR Del19/C797S (Homo sapiens, UniProt P00533, C797S/DEL746-750); experiment: Biochemical EGFR kinase inhibition assay (Lance Ultra TR-FRET), double mutant del19/C797S
Outline: as §1

[1] = IC50 L858R/C797S (nM), 100 μM ATP
[2] = Km ATP, read-out: IC50 L858R/C797S (nM) Km ATP
[3] = IC50 Del19/T790M/C797S (nM), 100 μM ATP
[4] = Km ATP, read-out: IC50 Del19/T790M/C797S (nM) Km ATP
[5] = IC50 L858R/T790M/C797S (nM), 100 μM ATP
[6] = Km ATP, read-out: IC50 L858R/T790M/C797S (nM) Km ATP
[7] = Km ATP, read-out: IC50 WT (nM) Km ATP
[8] = IC50 Del19/C797S (nM), 100 μM ATP
[9] = Km ATP, read-out: IC50 Del19/C797S (nM) Km ATP
[10] = ATP at Km, read-out: IC50 L858R/C797S (nM), Km ATP
[11] = ATP at Km, read-out: IC50 Del19/T790M/C797S (nM), Km ATP
[12] = ATP at Km, read-out: IC50 L858R/T790M/C797S (nM), Km ATP
[13] = ATP at Km, read-out: IC50 WT (nM), Km ATP
[14] = ATP at Km, read-out: IC50 Del19/C797S (nM), Km ATP

Sequence of EGFR L858R/T790M/C797S (P00533 25-1210 T790M/C797S/L858R): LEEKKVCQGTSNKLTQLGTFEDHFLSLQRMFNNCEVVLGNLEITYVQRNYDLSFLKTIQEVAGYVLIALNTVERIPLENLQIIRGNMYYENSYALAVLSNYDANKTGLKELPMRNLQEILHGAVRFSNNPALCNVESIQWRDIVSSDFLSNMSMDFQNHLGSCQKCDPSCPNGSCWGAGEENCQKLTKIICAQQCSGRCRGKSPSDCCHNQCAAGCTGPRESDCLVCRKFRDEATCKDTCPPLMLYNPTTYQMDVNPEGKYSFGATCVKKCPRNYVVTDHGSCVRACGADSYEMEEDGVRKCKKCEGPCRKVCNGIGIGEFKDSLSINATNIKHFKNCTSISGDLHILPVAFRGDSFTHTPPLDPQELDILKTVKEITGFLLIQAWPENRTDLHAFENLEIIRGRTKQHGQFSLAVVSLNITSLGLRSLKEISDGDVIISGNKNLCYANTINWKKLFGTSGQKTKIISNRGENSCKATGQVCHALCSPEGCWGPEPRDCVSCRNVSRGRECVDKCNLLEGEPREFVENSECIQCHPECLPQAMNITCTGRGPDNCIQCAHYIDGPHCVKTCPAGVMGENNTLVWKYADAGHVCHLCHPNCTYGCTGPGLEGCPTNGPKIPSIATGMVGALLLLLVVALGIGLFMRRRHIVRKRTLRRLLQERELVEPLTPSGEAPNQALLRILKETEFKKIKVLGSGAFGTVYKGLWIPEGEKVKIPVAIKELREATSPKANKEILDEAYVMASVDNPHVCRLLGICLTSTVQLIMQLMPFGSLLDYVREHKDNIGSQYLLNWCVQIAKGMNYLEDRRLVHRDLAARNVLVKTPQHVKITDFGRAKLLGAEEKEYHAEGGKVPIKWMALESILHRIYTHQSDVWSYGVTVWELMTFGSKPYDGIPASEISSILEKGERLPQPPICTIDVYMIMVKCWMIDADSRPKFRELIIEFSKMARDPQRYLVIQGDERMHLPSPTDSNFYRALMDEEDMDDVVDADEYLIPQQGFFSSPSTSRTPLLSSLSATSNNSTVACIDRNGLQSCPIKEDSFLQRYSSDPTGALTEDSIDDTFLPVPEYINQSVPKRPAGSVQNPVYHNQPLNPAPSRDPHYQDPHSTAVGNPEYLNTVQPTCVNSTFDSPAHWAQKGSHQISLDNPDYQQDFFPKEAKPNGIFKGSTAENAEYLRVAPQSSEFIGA
Sequence of EGFR wildtype (WT) (P00533 25-1210): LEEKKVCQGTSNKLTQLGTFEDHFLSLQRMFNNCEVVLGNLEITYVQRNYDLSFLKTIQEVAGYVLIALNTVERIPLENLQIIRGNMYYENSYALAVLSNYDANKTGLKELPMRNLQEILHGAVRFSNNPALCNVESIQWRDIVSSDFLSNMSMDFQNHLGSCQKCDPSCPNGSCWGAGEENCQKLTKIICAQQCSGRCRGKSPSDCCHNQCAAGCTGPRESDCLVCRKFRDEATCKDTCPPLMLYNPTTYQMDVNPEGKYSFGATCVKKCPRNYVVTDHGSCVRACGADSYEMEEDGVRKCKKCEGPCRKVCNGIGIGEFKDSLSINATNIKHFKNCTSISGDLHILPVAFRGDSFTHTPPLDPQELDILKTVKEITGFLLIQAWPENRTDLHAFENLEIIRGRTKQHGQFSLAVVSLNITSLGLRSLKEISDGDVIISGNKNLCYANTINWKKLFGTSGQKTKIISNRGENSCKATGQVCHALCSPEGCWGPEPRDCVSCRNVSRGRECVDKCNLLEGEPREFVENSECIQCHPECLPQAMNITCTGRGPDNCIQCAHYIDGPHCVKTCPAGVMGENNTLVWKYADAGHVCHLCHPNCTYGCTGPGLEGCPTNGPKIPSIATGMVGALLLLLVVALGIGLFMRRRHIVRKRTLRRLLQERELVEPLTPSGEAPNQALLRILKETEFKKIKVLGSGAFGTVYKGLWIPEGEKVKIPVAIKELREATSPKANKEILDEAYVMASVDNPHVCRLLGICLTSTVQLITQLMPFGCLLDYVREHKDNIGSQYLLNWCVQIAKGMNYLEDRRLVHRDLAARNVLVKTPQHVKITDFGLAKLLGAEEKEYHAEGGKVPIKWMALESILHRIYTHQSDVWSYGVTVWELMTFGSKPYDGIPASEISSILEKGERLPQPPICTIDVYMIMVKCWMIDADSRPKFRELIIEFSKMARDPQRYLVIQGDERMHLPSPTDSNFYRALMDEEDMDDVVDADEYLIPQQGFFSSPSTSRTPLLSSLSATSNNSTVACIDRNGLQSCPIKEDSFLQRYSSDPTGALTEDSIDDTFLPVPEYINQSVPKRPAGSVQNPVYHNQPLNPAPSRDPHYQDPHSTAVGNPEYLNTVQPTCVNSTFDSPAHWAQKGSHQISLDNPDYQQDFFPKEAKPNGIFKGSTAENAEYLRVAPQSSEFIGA
Sequence of EGFR L858R/C797S (P00533 25-1210 C797S/L858R): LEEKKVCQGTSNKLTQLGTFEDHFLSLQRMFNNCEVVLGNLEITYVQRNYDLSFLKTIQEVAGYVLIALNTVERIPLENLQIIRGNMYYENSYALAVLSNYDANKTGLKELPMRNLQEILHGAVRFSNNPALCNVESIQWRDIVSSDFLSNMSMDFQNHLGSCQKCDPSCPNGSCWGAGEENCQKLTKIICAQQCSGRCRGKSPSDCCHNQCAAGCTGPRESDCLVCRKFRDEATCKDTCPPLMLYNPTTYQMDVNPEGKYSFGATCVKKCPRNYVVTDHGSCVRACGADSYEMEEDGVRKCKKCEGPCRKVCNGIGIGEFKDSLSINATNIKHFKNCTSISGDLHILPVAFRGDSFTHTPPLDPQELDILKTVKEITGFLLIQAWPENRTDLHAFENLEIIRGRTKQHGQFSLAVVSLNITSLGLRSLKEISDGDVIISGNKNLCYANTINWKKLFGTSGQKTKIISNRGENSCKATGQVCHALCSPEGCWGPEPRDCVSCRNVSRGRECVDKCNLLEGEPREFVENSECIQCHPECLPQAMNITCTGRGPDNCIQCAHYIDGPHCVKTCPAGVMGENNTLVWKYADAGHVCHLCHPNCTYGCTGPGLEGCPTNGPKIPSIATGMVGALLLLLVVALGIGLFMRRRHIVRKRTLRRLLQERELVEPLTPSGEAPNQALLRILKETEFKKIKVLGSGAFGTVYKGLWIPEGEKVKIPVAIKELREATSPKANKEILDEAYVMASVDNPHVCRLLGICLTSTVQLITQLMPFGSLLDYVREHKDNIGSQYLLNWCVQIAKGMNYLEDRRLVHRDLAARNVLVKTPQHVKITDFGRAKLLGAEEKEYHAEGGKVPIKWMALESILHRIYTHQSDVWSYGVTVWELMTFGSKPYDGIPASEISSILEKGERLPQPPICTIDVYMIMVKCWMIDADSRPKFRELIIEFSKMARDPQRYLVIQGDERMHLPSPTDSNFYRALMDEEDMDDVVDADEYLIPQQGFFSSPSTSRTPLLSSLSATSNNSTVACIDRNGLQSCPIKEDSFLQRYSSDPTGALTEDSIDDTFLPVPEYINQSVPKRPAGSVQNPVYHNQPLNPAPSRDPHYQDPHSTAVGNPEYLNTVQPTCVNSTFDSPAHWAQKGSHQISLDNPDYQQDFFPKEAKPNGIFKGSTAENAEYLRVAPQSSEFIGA
Sequence of EGFR Del19/T790M/C797S (P00533 with tags, fused parts or gaps DEL746-750/T790M/C797S): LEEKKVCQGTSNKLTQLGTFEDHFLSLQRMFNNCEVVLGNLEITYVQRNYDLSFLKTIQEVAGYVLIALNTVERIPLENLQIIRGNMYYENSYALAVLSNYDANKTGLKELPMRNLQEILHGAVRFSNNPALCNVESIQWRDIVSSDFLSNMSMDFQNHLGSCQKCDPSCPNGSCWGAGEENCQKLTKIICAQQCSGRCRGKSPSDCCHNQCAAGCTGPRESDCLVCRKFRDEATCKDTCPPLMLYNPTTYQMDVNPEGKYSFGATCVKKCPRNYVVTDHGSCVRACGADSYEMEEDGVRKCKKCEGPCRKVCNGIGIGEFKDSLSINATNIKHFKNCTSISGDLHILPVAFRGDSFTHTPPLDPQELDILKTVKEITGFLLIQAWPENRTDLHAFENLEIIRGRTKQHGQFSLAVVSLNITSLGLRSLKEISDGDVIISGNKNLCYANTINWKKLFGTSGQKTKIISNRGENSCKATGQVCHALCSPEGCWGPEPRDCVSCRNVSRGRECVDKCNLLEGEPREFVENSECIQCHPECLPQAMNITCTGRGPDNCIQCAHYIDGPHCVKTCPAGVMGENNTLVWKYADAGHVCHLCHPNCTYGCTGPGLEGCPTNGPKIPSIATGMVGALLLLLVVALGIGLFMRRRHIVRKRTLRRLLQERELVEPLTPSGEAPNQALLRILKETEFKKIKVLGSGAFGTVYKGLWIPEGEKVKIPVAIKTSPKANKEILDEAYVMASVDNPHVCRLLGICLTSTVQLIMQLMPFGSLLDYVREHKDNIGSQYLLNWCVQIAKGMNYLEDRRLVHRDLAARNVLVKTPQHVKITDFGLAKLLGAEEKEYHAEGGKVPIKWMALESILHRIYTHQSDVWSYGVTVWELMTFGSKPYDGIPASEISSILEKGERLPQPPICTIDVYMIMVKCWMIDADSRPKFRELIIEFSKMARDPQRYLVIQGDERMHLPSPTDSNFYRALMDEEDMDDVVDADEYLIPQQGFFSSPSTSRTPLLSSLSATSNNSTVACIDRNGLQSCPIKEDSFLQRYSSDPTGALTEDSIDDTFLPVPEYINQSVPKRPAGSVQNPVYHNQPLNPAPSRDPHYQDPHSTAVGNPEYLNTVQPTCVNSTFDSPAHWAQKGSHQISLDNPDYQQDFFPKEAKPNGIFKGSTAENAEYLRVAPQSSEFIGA

Structure (SMILES) | IC50 (EGFR L858R/C797S; [1]) [nM] | IC50 (EGFR L858R/C797S; [2]) [nM] | IC50 (EGFR Del19/T790M/C797S; [3]) [nM] | IC50 (EGFR Del19/T790M/C797S; [4]) [nM] | IC50 (EGFR L858R/T790M/C797S; [5]) [nM] | IC50 (EGFR L858R/T790M/C797S; [6]) [nM] | IC50 (EGFR wildtype (WT); IC50 WT (nM), 100 μM ATP) [nM] | IC50 (EGFR wildtype (WT); [7]) [nM] | IC50 (EGFR Del19/C797S; [8]) [nM] | IC50 (EGFR Del19/C797S; [9]) [nM] | IC50 (EGFR L858R/C797S; [10]) [nM] | IC50 (EGFR Del19/T790M/C797S; [11]) [nM] | IC50 (EGFR L858R/T790M/C797S; [12]) [nM] | IC50 (EGFR wildtype (WT); [13]) [nM] | IC50 (EGFR Del19/C797S; [14]) [nM]
CN(C)CCCn1cc(C#Cc2cnc(Nc3ccnc(-c4cnn(S(=O)(=O)C5CC5)c4)n3)cc2N2CCC(NCCF)CC2)cn1 [Example 145, 2-(1-(Cyclopropylsulfonyl)-1H-pyrazol-4-yl)-N-(5-((1-(3-(dimethylamino)propyl)-1H-pyrazol-4-yl)ethynyl)-4-(4-((2-fluoroethyl)amino)piperidin-1-yl)pyridin-2-yl)pyrimidin-4-amine] | 23.4 | 0.5 | 0.2 | 0.2 | 0.3 | 0.1 | 5550 | 14.2 | 0.7 | 0.6 | – | – | – | – | –
CN1CCC(n2cc(C#Cc3cnc(Nc4ccnc(-c5cnn(S(=O)(=O)C6CC6)c5)n4)cc3N3CCC(C)(CO)CC3)cn2)CC1 [Example 147, (1-(2-((2-(1-(Cyclopropylsulfonyl)-1H-pyrazol-4-yl)pyrimidin-4-yl)amino)-5-((1-(1-methylpiperidin-4-yl)-1H-pyrazol-4-yl)ethynyl)pyridin-4-yl)-4-methylpiperidin-4-yl)methanol] | 0.7 | 0.2 | 0.4 | 0.2 | 0.2 | 0.1 | 43.3 | 0.4 | 0.4 | 0.2 | – | – | – | – | –
CC1(CO)CCN(c2cc(Nc3ccnc(-c4cnn(S(=O)(=O)C5CC5)c4)n3)ncc2C#Cc2cnn3c2CNCC3)CC1 [Example 149, (1-(2-((2-(1-(Cyclopropylsulfonyl)-1H-pyrazol-4-yl)pyrimidin-4-yl)amino)-5-((4,5,6,7-tetrahydropyrazolo[1,5-a]pyrazin-3-yl)ethynyl)pyridin-4-yl)-4-methylpiperidin-4-yl)methanol] | 3.4 | 0.3 | 0.4 | 0.2 | 0.2 | 0.1 | 853 | 1.6 | 0.4 | 0.2 | – | – | – | – | –
CN1CCn2ncc(C#Cc3cnc(Nc4ccnc(-c5cnn(S(=O)(=O)C6CC6)c5)n4)cc3N3CCC(C)(CO)CC3)c2C1 [Example 150, (1-(2-((2-(1-(Cyclopropylsulfonyl)-1H-pyrazol-4-yl)pyrimidin-4-yl)amino)-5-((5-methyl-4,5,6,7-tetrahydropyrazolo[1,5-a]pyrazin-3-yl)ethynyl)pyridin-4-yl)-4-methylpiperidin-4-yl)methanol] | 8.9 | 2.2 | 0.5 | 0.5 | 0.5 | 0.2 | 3760 | 4.9 | 0.7 | 0.8 | – | – | – | – | –
CN(C)CCCn1cc(C#Cc2cnc(Nc3ccnc(-c4cnn(S(=O)(=O)C5CC5)c4)n3)cc2N2CCC3(CC2)CC(C)(O)C3)cn1 [Example 152, 7-(2-((2-(1-(Cyclopropylsulfonyl)-1H-pyrazol-4-yl)pyrimidin-4-yl)amino)-5-((1-(3-(dimethylamino)propyl)-1H-pyrazol-4-yl)ethynyl)pyridin-4-yl)-2-methyl-7-azaspiro[3.5]nonan-2-ol] | 0.8 | – | 0.3 | – | 0.2 | – | 196 | – | 0.4 | – | 0.2 | 0.2 | 0.1 | 0.6 | 0.1
CNCCC1CCN(c2cc(Nc3ccnc(-c4cnn(S(=O)(=O)C5CC5)c4)n3)ncc2C#Cc2cnn(C)c2)CC1 [Example 153, 2-(1-(Cyclopropylsulfonyl)-1H-pyrazol-4-yl)-N-(5-((1-methyl-1H-pyrazol-4-yl)ethynyl)-4-(4-(2-(methylamino)ethyl)piperidin-1-yl)pyridin-2-yl)pyrimidin-4-amine] | 5.1 | – | 0.1 | – | 0.1 | – | 822 | – | 0.3 | – | 1.8 | 0.1 | 0.04 | 1.9 | 0.3
Cn1cc(C#Cc2cnc(Nc3ccnc(-c4cnn(S(=O)(=O)C5CC5)c4)n3)cc2N2CCC3(CCNCC3)C2)cn1 [Example 154, 2-(1-(Cyclopropylsulfonyl)-1H-pyrazol-4-yl)-N-(5-((1-methyl-1H-pyrazol-4-yl)ethynyl)-4-(2,8-diazaspiro[4.5]decan-2-yl)pyridin-2-yl)pyrimidin-4-amine] | 145 | – | 1.4 | – | 4.3 | – | 6720 | – | 12 | – | 6.4 | 0.4 | 0.3 | 44.4 | 6

Further compounds by falling IC50 (EGFR L858R/C797S; [1]), results first:

IC50 (EGFR L858R/C797S; [1]) [nM] | IC50 (EGFR L858R/C797S; [2]) [nM] | IC50 (EGFR Del19/T790M/C797S; [3]) [nM] | IC50 (EGFR Del19/T790M/C797S; [4]) [nM] | IC50 (EGFR L858R/T790M/C797S; [5]) [nM] | IC50 (EGFR L858R/T790M/C797S; [6]) [nM] | IC50 (EGFR wildtype (WT); IC50 WT (nM), 100 μM ATP) [nM] | IC50 (EGFR wildtype (WT); [7]) [nM] | IC50 (EGFR Del19/C797S; [8]) [nM] | IC50 (EGFR Del19/C797S; [9]) [nM] | IC50 (EGFR L858R/C797S; [10]) [nM] | IC50 (EGFR Del19/T790M/C797S; [11]) [nM] | IC50 (EGFR L858R/T790M/C797S; [12]) [nM] | IC50 (EGFR wildtype (WT); [13]) [nM] | IC50 (EGFR Del19/C797S; [14]) [nM] | Structure (SMILES)
57.8 | – | 2.6 | – | 3 | – | > 10000 | – | 3.5 | – | 8.6 | 2.4 | 1.1 | 29.4 | 4.2 | CC1(CO)CCN(c2cc(Nc3ccnc(-c4cnn(S(=O)(=O)C5CC5)c4)n3)ncc2C#Cc2cnn3c2CN(CC(F)F)CC3)CC1 [Example 151, (1-(2-((2-(1-(Cyclopropylsulfonyl)-1H-pyrazol-4-yl)pyrimidin-4-yl)amino)-5-((5-(2,2-difluoroethyl)-4,5,6,7-tetrahydropyrazolo[1,5-a]pyrazin-3-yl)ethynyl)pyridin-4-yl)-4-methylpiperidin-4-yl)methanol]
34.3 | 0.8 | 0.3 | 0.3 | 0.4 | 0.1 | > 10000 | 23.8 | 0.9 | 0.8 | – | – | – | – | – | CN(C)CCn1cc(C#Cc2cnc(Nc3ccnc(-c4cnn(S(=O)(=O)C5CC5)c4)n3)cc2N2CCC(NCCF)CC2)cn1 [Example 144, 2-(1-(Cyclopropylsulfonyl)-1H-pyrazol-4-yl)-N-(5-((1-(2-(dimethylamino)ethyl)-1H-pyrazol-4-yl)ethynyl)-4-(4-((2-fluoroethyl)amino)piperidin-1-yl)pyridin-2-yl)pyrimidin-4-amine]
1.5 | 0.3 | 0.2 | 0.1 | 0.1 | 0.04 | 348 | 0.8 | 0.5 | 0.2 | – | – | – | – | – | CNCC1(C)CCN(c2cc(Nc3ccnc(-c4cnn(S(=O)(=O)C5CC5)c4)n3)ncc2C#Cc2cnn(C)c2)CC1 [Example 146, 2-(1-(Cyclopropylsulfonyl)-1H-pyrazol-4-yl)-N-(5-((1-methyl-1H-pyrazol-4-yl)ethynyl)-4-(4-methyl-4-((methylamino)methyl)piperidin-1-yl)pyridin-2-yl)pyrimidin-4-amine]
0.6 | 0.2 | 0.3 | 0.2 | 0.2 | 0.1 | 47 | 0.4 | 0.3 | 0.2 | – | – | – | – | – | CN1CC(n2cc(C#Cc3cnc(Nc4ccnc(-c5cnn(S(=O)(=O)C6CC6)c5)n4)cc3N3CCC(C)(CO)CC3)cn2)C1 [Example 148, (1-(2-((2-(1-(Cyclopropylsulfonyl)-1H-pyrazol-4-yl)pyrimidin-4-yl)amino)-5-((1-(1-methylazetidin-3-yl)-1H-pyrazol-4-yl)ethynyl)pyridin-4-yl)-4-methylpiperidin-4-yl)methanol]
